Patent US8551951B2, “Pharmaceutical preparations and methods for inhibiting tumors” (Aenorasis SA Pharmaceuticals and Medical Devices, priority 2000, dated 2013)

How the values were obtained:
PC-3 cells [1] = test: clonogenicity assay (colony formation); assay type: cell-based, human
Procedure: The synthetic decapeptide (SEQ ID NO: 3) has been shown herein to mimic the biological activity of native PSP94 (nPSP94) (SEQ ID NO: 1) and therefore its effect on the PC-3 cells was studied in clonogenicity assay (colony formation). Cells were seeded in Costar 96 well cell culture flat bottom plates in RPMI supplemented media containing 50 μg/ml of bovine serum albumin (BSA) and 0.1 μM FeSO4. Clonogenicity was evaluated for PC-3 cells grown in the presence of various concentration of the decapeptide after 9 days of culture (FIG. 4a). A parallel experiment was performed with various concentration of nPSP94 using the same experimental conditions (FIG. 4b). Other experiments evaluating clonogenicity was performed with the decapeptide (FIG. 5a) or nPSP94 (FIG. 5b) after 21 days of culture as well as after 10 days of culture (FIG. 6a: Decapeptide and FIG. 6b: nPSP94).

[2] = tested on: PC-3 human prostate tumor; test: PC-3 human prostate tumor in nude mice, subcutaneous treatment for 14 days (Examples 10 and 11); assay type: in vivo, Nude mouse; settings: 10 μg/kg body weight per day s.c.
Procedure: PC-3 human prostate tumor was obtained from ATCC (ATCC 1435). PC-3 cells were grown in RPMI media containing 10% (v/v) of fetal calf serum and were harvested in the logarithmic phase of growth by trypsinization. Cells were centrifuged at 1200 rotation per minute (rpm) and washed three timed with Hanks balanced salt solution (HBSS). Following washing, cells were counted and adjusted to a concentration of 1×10^7 cells/ml in HBSS. A 0.1 ml volume of tumor cell inoculum containing 1×10^6 cells was administered subcutaneously into the two opposite flank region of each Nude mouse (Nu/Nu, BALE/c background). Tumor growth was monitored for approximately 18 days. Once tumor growth has been established (volume of tumor reached a volume of 50 mm^3) treatment with rHuPSP94 (SEQ ID NO: 2) was initiated and was performed once a day for 14 days by the subcutaneous route. Based on the assigned treatment groups illustrated in table 4.
PC-3 human prostate tumor (ATCC 1435) obtained from ATCC was implanted bilaterally into nude mice and tumor growth was monitored for approximately 18 days. PC-3 cells were injected once subcutaneously into each flank of the mice. Once tumor growth has been established (i.e., volume of tumor reached 0.25 to 0.50 cm^3) the treatment with decapeptide (SEQ ID NO: 3), native PSP94 (SEQ ID NO: 1) and control scrambled polypeptide PB111 was initiated and was performed once a day for 14 days by the subcutaneous route based on the treatment groups (randomly assigned) illustrated in table 5.

PC-3 cells [3] = test: Apoptosis assay by ELISA plus; assay type: cell-based, human; settings: 22.5 μM to 90 μM, 72 hours
Procedure: The three polypeptides (SEQ ID NO: 4, SEQ ID NO: 5 and SEQ ID NO 6) and native PSP94 used here as a positive control were tested in ELISA plus assay to measure cell death through apoptosis. Briefly, the ELISA plus assay is a sandwich enzyme immunoassay able to measure mono- and oligonucleosomes present in the cytoplasmic fraction of cell lysate using two antibodies, one directed against DNA and the other directed against histones. The apoptotic cell death is characterized by activation of endogenous endonucleases (e.g., calcium- and magnesium-dependant), which cleave double-stranded DNA at the most accessible internucleosomal linker region, generating mono- and oligonucleosomes. The enrichment of mono- and oligonucleosomes in the cytoplasm of the apoptotic cells is due to the fact that DNA degradation occurs several hours before plasma membrane breakdown.
Four thousand cells were seeded in Costar 96 well cell culture flat bottom plates in RPMI supplemented media containing 50 μg/ml of bovine serum albumin (BSA) and 0.1 μM FeSO4. The PC-3 cells were treated with various concentrations (22.5 μM to 90 μM) of polypeptides for 72 hours. Apoptosis assay was done as per manufacturer's instructions using the ApopTag kit (Boeringher Mannheim).

PC-3 cells [4] = test: DNA fragmentation assay (DNA ladder, apoptosis); assay type: cell-based, human; settings: various concentrations, 72 hours
Procedure: Cell apoptosis result in DNA fragmentation can be evaluated by the presence of a DNA ladder visualized when DNA is run on a 1.2% agarose gel. DNA ladder assay (apoptosis assay) was performed following exposure of PC-3 to various concentrations of the polypeptides for 72 hours. The polypeptides that were used in this particular experiment are polypeptide 7-21 (SEQ ID NO: 4), polypeptide PCK3145 (SEQ ID NO: 5) and polypeptide 76-94 (SEQ ID NO: 6). […] This effect was especially evident following treatment with PCK3145 (SEQ ID NO: 5), which is illustrated by FIG. 7. Lane 1 of the gel illustrated in FIG. 7 represents a lambda HindIII digest standard.
Apoptosis of PC-3 cells, following a 72 hours exposure to PCK3145 at 500 μg/ml concentration, was evaluated in supplemented media by DNA fragmentation assay. Doxorubicin was used as a reference positive control. Untreated cells and PCK3145-treated cells were harvested and the DNA was isolated. Isolated DNA was run on a 1.2% agarose gel containing Ethidium Bromide (EtBr). […] Lane 1 of the gel illustrated in FIG. 25 represents the DNA marker (100 base pair DNA ladder). Lane 2 of the gel illustrated in FIG. 25 represents a control of untreated PC-3 cells.

[5] = tested on: human prostate cancer cells PC-3; test: MTS assay, growth inhibitory effect on PC-3 cells; assay type: cell-based; settings: 72 hours
From the text: Cell proliferation was monitored on PC-3 cells using the MTS/PMS (phenazine methosulfate) kit (Promega), which primarily measures mitochondrial activity of live cells. The basic principle of this method involves the fact that the mitochondrial enzymes of the live cells metabolize the MTS/PMS dyes forming a brown colored precipitate which can be measured as optical density (OD) by absorption at 490 nm in a spectrophotometer. Therefore, the OD values are proportional to the number of living cells. In addition, monitoring of cell morphology was also performed. Cell morphology would be indicative of their health status. For example, viable cells would appear adherent and spread out whereas dead cells would be in suspension in the media and would appear granular and round.
PC-3 cells (ATCC, Lot AT06) used in these experiments were at a passage number lower or equal to 70 (n≧70). Cells were seeded in Costar 96 well cell culture flat bottom plates in RPMI supplemented media containing 50 μg/ml of bovine serum albumin (BSA) and 0.1 μM FeSO4. Peptide was diluted in the same media. Cells were continuously exposed to the polypeptides of the present invention for 72 hours without changing media. Native PSP94 or rHuPSP94 concentrated two fold were directly added to wells and diluted to 1× in order to minimize cell manipulation and avoid detachment.
Native PSP94, rHuPSP94, polypeptide 22-36 and PB111 polypeptide (scrambled polypeptide) were also included in this experiment as controls. Cell proliferation assay was performed on either PC-3 cells or normal fibroblasts (used here as control) using the MTS/PMS kit (Promega). Four thousand cells (FIGS. 9 and 10) or three thousand (FIG. 11) cells were seeded in Costar 96 well cell culture flat bottom plates in RPMI supplemented media containing 50 μg/ml of bovine serum albumin (BSA) and 0.1 μM FeSO4. In addition, monitoring of cell morphology was also performed.
This assay measures the mitochondrial activity of the live cells. The basic principle of this method involves the fact that the mitochondrial enzymes of the live cells metabolize the MTS/PMS dyes forming a brown colored precipitate which can be measured as optical density (OD) by absorption at 490 nm in a spectrophotometer. Therefore, the OD values are proportional to the number of living cells.
In addition, a visual observation of the cells was also done to check the cell morphology, which could also be indicative of cell growth. The following conditions for MTS assay were used: PC-3 (ATCC, Lot AT06), passage number n≧70, cell line adapted to grow in serum-free OPTI-MEM and in RPMI supplemented with BSA (50 μg/ml) and Ferrous Sulfate (0.1 μM), continuous exposure for up to 72 hours without changing media (i.e., adding PCK3145 at 2× concentration directly to wells and diluting it 1:2 to 1× to minimize cell manipulation and avoid detachment).

“decapeptide: synthetic decapeptide as set forth in SEQ ID NO: 3, mimics the biological activity of native PSP94 (YTCSVSEPGI; decapeptide)” was tested, and the “decrease in colony number” value (PC-3 cells [1]; 1 μg/ml) was 40%, the “decrease in colony number” value (PC-3 cells [1]; 10 μg/ml) was “up to 60%” and the “tumor growth (tumor volume)” value [2] was “significant (p<0.05) tumor growth reduction”.
With “polypeptide 76-94: PSP94 derived synthetic polypeptide from the carboxy terminus end, SEQ ID NO: 6 (IVVEKKDPKKTCSVSEWII; Polypeptide 76-94)” the “apoptotic cell death effect” value (PC-3 cells [3]) was “dose dependent increase in the apoptotic cell death effect”, the DNA laddering effect (PC-3 cells [4]) was “induced a DNA laddering effect characteristic of apoptosis” and the “growth inhibition of PC-3 cells (FIG. 10)” value [5] was “significant growth inhibition”.
